Like-named read-outs stand apart in the source and are kept apart here.
Experiments:
[1] = target: T1, rat or human VR1 (UniProt Q8NER1); settings: Xenopus oocytes or HEK cells over-expressing rat or human VR1; read-out: VR1 EC50 (literature); cited from earlier work
T1 construct: other: Xenopus oocytes or HEK cells over-expressing rat or human VR1

[2] = system: mice; settings: cited from earlier work
[3] = system: anandamide membrane transporter (AMT); settings: RBL-2H3 cells; read-out: AMT IC50 (previously reported); cited from earlier work
[4] = system: rat or human VR1; settings: cited from earlier work
[5] = target: T2, FAAH (Rattus norvegicus, UniProt P97612); assay: Fatty acid amide hydrolase assay, rat brain membranes; type: biochemical
T2 construct: membranes prepared from frozen brains of CD rats (Charles River, France); from tissue; host or cells: brain membranes of CD rats
T2 sequence (P97612 1-579): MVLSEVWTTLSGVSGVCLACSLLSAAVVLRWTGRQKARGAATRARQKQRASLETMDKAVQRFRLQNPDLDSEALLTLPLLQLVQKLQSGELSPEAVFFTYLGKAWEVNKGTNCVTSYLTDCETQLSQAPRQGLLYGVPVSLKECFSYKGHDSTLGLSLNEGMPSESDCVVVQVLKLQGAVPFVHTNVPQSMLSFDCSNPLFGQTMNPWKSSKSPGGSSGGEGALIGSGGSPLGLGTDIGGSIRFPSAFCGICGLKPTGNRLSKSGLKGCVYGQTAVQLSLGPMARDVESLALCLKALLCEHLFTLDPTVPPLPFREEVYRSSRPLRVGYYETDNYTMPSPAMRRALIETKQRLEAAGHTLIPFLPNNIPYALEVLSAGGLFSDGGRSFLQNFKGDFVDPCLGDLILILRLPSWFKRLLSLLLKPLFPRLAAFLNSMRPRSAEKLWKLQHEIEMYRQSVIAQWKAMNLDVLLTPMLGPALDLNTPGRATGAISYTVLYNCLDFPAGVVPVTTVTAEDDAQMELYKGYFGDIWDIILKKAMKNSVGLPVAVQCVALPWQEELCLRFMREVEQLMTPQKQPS
Procedure: Fatty acid amide hydrolase assay—The effect of compounds on the enzymatic hydrolysis of AEA was studied using membranes prepared from frozen brains of CD rats (Charles River, France), incubated with the test compounds and [^14C] AEA (9 μM) in 50 mM Tris-HCl, pH 9, for 30 min at 37° C. [^14C] Ethanolamine produced from [^14C] AEA hydrolysis was measured by scintillation counting of the aqueous phase after extraction of the incubation mixture with 2 volumes of CHCl3/CH3OH 2:1 (by vol.).
(§1) CP55940 from whole rat brain membranes.

[6] = target: human VR1 receptor (Homo sapiens, UniProt Q8NER1); assay: Cytosolic calcium concentration assay in HEK-hVR1 cells (Example 3); settings: for Emax: read-out: hVR1 efficacy (maximal effect, in parentheses)
Sequence of human VR1 receptor (Q8NER1 whole entry): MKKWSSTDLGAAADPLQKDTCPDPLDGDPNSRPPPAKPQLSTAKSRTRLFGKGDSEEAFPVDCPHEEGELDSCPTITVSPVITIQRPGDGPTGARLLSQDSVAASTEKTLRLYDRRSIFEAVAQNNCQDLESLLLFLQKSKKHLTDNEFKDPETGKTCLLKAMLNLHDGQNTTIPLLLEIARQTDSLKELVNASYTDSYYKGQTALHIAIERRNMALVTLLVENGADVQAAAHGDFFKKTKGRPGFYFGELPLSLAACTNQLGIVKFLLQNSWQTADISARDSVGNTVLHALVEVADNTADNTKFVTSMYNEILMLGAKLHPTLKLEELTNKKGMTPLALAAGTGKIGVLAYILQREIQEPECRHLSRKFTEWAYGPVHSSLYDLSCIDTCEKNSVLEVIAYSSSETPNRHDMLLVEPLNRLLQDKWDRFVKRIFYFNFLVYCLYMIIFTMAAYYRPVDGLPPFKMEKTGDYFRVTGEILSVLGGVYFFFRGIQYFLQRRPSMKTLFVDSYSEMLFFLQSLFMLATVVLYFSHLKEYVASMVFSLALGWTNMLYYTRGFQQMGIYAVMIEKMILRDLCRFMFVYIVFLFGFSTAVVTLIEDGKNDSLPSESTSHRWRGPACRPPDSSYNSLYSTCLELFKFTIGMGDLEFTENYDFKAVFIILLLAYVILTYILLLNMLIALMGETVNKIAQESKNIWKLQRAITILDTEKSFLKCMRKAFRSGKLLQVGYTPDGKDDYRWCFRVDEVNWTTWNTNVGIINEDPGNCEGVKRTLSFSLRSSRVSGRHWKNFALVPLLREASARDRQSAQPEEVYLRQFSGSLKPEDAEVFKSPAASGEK

[7] = system: AMT; type: cell-based, rat; settings: [14C]AEA uptake, RBL-2H3 cells; read-out: AEA transport (IC50)
Procedure: AEA. Cells were incubated with [^14C] AEA for 5 min at 37° C., in the presence or absence of varying concentrations of the inhibitors. Residual [^14C] AEA in the incubation media after extraction with CHCl3/CH3OH 2:1 (by vol.), determined by scintillation counting of the lyophilized organic phase, was used as a measure of the AEA that was taken up by cells.
as §1

[8] = target: T3, CB1 receptors (Rattus norvegicus, UniProt P20272); assay: Agonist-stimulated [35S]GTPγS binding, rat hippocampal membranes; settings: for Emax: read-out: GTPγS binding (Emax)
T3 sequence (P20272 whole entry): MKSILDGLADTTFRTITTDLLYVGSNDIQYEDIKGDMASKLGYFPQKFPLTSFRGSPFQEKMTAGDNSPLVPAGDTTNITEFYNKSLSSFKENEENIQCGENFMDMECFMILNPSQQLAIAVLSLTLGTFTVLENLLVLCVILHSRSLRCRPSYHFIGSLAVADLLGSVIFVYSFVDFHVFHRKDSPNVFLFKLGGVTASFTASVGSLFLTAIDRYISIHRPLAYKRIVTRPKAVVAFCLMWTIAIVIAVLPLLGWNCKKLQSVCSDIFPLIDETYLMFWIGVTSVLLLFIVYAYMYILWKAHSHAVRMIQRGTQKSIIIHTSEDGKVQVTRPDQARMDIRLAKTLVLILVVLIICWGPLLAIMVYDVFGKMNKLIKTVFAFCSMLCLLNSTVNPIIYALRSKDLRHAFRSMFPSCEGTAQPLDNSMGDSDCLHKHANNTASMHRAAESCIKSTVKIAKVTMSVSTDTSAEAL

[9] = system: mice; assay: Mouse tetrad of behavioral tests, i.v. (Example 3); type: in vivo; settings: for Average ED50 / R.I. ED50 / Rectal temp. ED50 / Spontan. activity ED50 / Tail Flick ED50: i.v.; for R.I. ED50 / Rectal temp. ED50 / Spontan. activity ED50 / Tail Flick ED50: mean (range)
Procedure: (§2) The analogs were administered to mice by tail-vein injection and evaluated for their ability to produce hypomotility, hypothermia, and antinociception. These pharmacological measures were determined in the same mouse at a time when maximal activity was present. […] A 10-sec maximum latency was used. Antinociception was expressed as % MPE as described below.
Data Analysis—For production of hypomotility and hypothermia, the data were expressed as a percentage of control activity and change in temperature, respectively. Antinociception was calculated according to the following equation.
% MPE=−((test latency-control latency)/(10s-control latency))×100
At least six animals were treated with each dose-response relationships could be determined for each analog. ED50 values were determined from least-squares unweighted linear regression analysis of log dose-response plots.
The ED50 (milligrams per kilogram, i.v.) does for inhibition of sector crossings (spontaneous activity) in an open field, antinociception (delay in seconds in the tail-flick response), decrease of rectal temperature in degrees Celsius, and induction of time spent in immobility on a ring are shown. Data are means (and ranges) of N>six animals.

[10] = target: T3, CB1 receptors; assay: CB1 receptor binding, [3H]CP55940, whole rat brain membranes (Example 3)
[11] = system: mice; assay: SR141716A pre-treatment before compounds in spontaneous activity and tail-flick tests in mice; type: in vivo, mouse; settings: for effect of SR141716A pre-treatment on the compound's effects in the tetrad tests: SR141716A 3 mg/kg i.v., 10 min pre-treatment; for Spontaneous Activity (Beam Interuptions), SR14176a + comp / Tail-Flick Latency (% MPE), SR14176a + comp: SR14176A 3 mg/kg i.v. 10 min before
Procedure: as §2
Data are means ±S.E. of n≧six animals.

CCCCC/C=C\C/C=C\C/C=C\C/C=C\CCCC(=O)NCCO [AEA, arachidonoylethanolamide]
EC50 [1]: 1000 to 5000 nM

CCCCC/C=C\C/C=C\C/C=C\C/C=C\CCCC(=O)NCc1ccc(O)c(OC)c1 [arvanil, N-[3-methoxy-4-hydroxy-benzyl]-arachidonamide]
ED50 in the 'tetrad' [2]: 0.085 mg/kg
IC50 [3]: 3600 nM
fold more potent at VR1 than CB1 receptors [4]: approximately 500 fold

CCCCC/C=C\C/C=C\C/C=C\C/C=C\CCCNC(=S)NCc1ccc(O)c(Cl)c1 [Compound O-2109]
IC50 [5]: > 50000 nM
EC50 [6]: 4 ± 1.1 nM
fold less potent than O-2095 at VR1 [6]: 10 fold
IC50 [7]: 3800 ± 700 nM
Emax [8]: 0%
Average ED50 [9]: 0.15 milligrams per kilogram
R.I. ED50 [9]: 0.15 (0.10-0.23) milligrams per kilogram
Rectal temp. ED50 [9]: 0.33 (0.02-5.06) milligrams per kilogram
Spontan. activity ED50 [9]: 0.02 (0.02-0.03) milligrams per kilogram
Tail Flick ED50 [9]: 0.09 (0.06-0.12) milligrams per kilogram
Ki ([10]; read-out: CB1 affinity Ki): 1800 ± 204 nM

CCCCC/C=C\C/C=C\C/C=C\C/C=C\CCCC(=O)NCc1cccc(OC)c1 [Compound O-1986]
IC50 [5]: 18200 ± 2800 nM
EC50 [6]: 63 ± 10.1 nM
fold less potent than arvanil at hVR1 [6]: more than 100 fold
Emax [6]: 68%
IC50 [7]: 27300 ± 3500 nM
Emax [8]: 0%
Average ED50 [9]: 5.80 milligrams per kilogram
R.I. ED50 [9]: 6.13 (4.79-7.83) milligrams per kilogram
Rectal temp. ED50 [9]: 6.15 (3.22-11.73) milligrams per kilogram
Spontan. activity ED50 [9]: 4.74 (3.17-7.09) milligrams per kilogram
Tail Flick ED50 [9]: 6.15 (4.63-8.16) milligrams per kilogram
Ki ([10]; read-out: CB1 affinity Ki): 484 ± 17 nM

CCCCC/C=C\C/C=C\C/C=C\C/C=C\CCCC(=O)NCc1ccc(OC(=O)CCCN2CCOCC2)c(OC)c1 [Compound O-2142]
IC50 [5]: 9100 ± 1700 nM
EC50 [6]: 0.6 ± 0.2 nM
Emax [6]: 86.6%
IC50 [7]: 30000 ± 4300 nM
activity in the GTPγS binding assay [8]: inactive
Emax [8]: 0%
Average ED50 [9]: 0.17 milligrams per kilogram
R.I. ED50 [9]: 0.17 (0.13-0.22) milligrams per kilogram
Rectal temp. ED50 [9]: 0.11 (0.07-0.17) milligrams per kilogram
Spontan. activity ED50 [9]: 0.20 (0.16-0.24) milligrams per kilogram
Tail Flick ED50 [9]: 0.19 (0.15-0.25) milligrams per kilogram
Ki ([10]; read-out: CB1 affinity Ki): 483 ± 63 nM

CCCCC/C=C\C/C=C\C/C=C\C/C=C\CCCC(=O)NCc1ccc(O)c(Cl)c1 [Compound O-2094]
IC50 [5]: 4500 ± 700 nM
EC50 [6]: 10 nM
Emax [6]: 63.5%
IC50 [7]: 19000 ± 2100 nM
EC50 [8]: 131 nM
activity in the GTPγS binding assay [8]: low efficacy partial agonist
Emax [8]: 15%
ED50 ([9]; Mus musculus, iv, read-out: ED50 values, range over the four parameters of the mouse 'tetrad'): 0.49 to 3.77 mg/kg
Average ED50 [9]: 1.68 milligrams per kilogram
R.I. ED50 [9]: 1.93 (1.56-2.39) milligrams per kilogram
Rectal temp. ED50 [9]: 3.77 (1.21-11.76) milligrams per kilogram
Spontan. activity ED50 [9]: 0.52 (0.38-0.71) milligrams per kilogram
Tail Flick ED50 [9]: 0.49 (0.35-0.67) milligrams per kilogram
Ki ([10]; read-out: CB1 affinity Ki): 275 ± 16 nM
Ki ([10]; read-out: CB1 affinity Ki, listed as 0-2094): 274 ± 19 nM
effect of SR141716A pre-treatment on the compound's effects in the tetrad tests [11]: not affected
effect of SR141716A pre-treatment on the compound's effects in the tetrad tests ([11]; listed as 0-2094): No inhibitory effect
Spontaneous Activity (Beam Interuptions), vehicle + compound ([11]; dose 1 mg/kg i.v.): 83 ± 17 Beam Interuptions
Tail-Flick Latency (% MPE), vehicle + compound ([11]; dose 1 mg/kg i.v.): 94 ± 5 % MPE
Spontaneous Activity (Beam Interuptions), SR14176a + comp ([11]; dose 1 mg/kg i.v.): 116 ± 21 Beam Interuptions
Tail-Flick Latency (% MPE), SR14176a + comp ([11]; dose 1 mg/kg i.v.): 100 % MPE
Spontaneous Activity (Beam Interuptions), vehicle + compound ([11]; dose 3 mg/kg i.v.): 118 ± 16 Beam Interuptions
Tail-Flick Latency (% MPE), vehicle + compound ([11]; dose 3 mg/kg i.v.): 100 % MPE
Spontaneous Activity (Beam Interuptions), SR14176a + comp ([11]; dose 3 mg/kg i.v.): 52 ± 19 Beam Interuptions
Tail-Flick Latency (% MPE), SR14176a + comp ([11]; dose 3 mg/kg i.v.): 96 ± 4 % MPE

CCCCC/C=C\C/C=C\C/C=C\C/C=C\CCCC(=O)N(C)Cc1ccc(O)c(OC)c1 [Compound O-1988]
IC50 [5]: > 50000 nM
EC50 [6]: 25 ± 3.9 nM
Emax [6]: 69.1%
IC50 [7]: 10000 ± 2100 nM
Emax [8]: 0%
Average ED50 [9]: 5.98 milligrams per kilogram
R.I. ED50 [9]: 4.08 (2.99-5.56) milligrams per kilogram
Rectal temp. ED50 [9]: 8.74 (5.61-13.60) milligrams per kilogram
Spontan. activity ED50 [9]: 3.11 (1.54-6.29) milligrams per kilogram
Tail Flick ED50 [9]: 7.98 (5.17-12.34) milligrams per kilogram
Ki ([10]; read-out: CB1 affinity Ki): 2830 ± 175 nM
effect of SR141716A pre-treatment on the compound's effects in the tetrad tests [11]: not affected
Spontaneous Activity (Beam Interuptions), vehicle + compound ([11]; dose 3 mg/kg i.v.): 766 ± 157 Beam Interuptions
Tail-Flick Latency (% MPE), vehicle + compound ([11]; dose 3 mg/kg i.v.): 54 ± 9 % MPE
Spontaneous Activity (Beam Interuptions), SR14176a + comp ([11]; dose 3 mg/kg i.v.): 689 ± 68 Beam Interuptions
Tail-Flick Latency (% MPE), SR14176a + comp ([11]; dose 3 mg/kg i.v.): 67 ± 15 % MPE
Spontaneous Activity (Beam Interuptions), vehicle + compound ([11]; dose 10 mg/kg i.v.): 179 ± 34 Beam Interuptions
Tail-Flick Latency (% MPE), vehicle + compound ([11]; dose 10 mg/kg i.v.): 100 % MPE
Spontaneous Activity (Beam Interuptions), SR14176a + comp ([11]; dose 10 mg/kg i.v.): 117 ± 17 Beam Interuptions
Tail-Flick Latency (% MPE), SR14176a + comp ([11]; dose 10 mg/kg i.v.): 100 % MPE

CCCCC/C=C\C/C=C\C/C=C\C/C=C\CCCC(=O)N[C@H](C)CO [Met-AEA, (R)-1′-Methyl-2′-hydroxy-ethyl-arachidonamide]
IC50 [3]: 24500 nM
